Measurements as given in PubChem BioAssay AID486 (Columbia University Molecular Screening Center, 2006).
Calls of active or inactive are those of the source.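 The calls were made as follows: active = ranking score of 15 or more out of 100, based on fitted potency or summed per-dose inhibition deviations; inactive = the rest.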

What follows are compounds tested on exon1htt(103Q)-mCFP cells, aggregate imaging, high-content (assay: mutant huntingtin aggregate clearance potency, dose response, imaging, exon1htt(103Q)-mCFP cells, high-content imaging (AID 486)).

SMILES	IC50
OCCNC1=NCCN1	> 8 µM (inactive)
CCCCc1nccn1CCn1ccnc1CCCC	> 8 µM (inactive)
Cn1c(-c2ccc(F)cc2)cnc1SCC(=O)Nc1ccccc1N1CCOCC1	> 8 µM (inactive)
Cc1ccccc1-n1c(=O)cc(NCc2ccc3c(c2)OCO3)[nH]c1=O	> 8 µM (inactive)
COc1ccc(OC)c(C(=O)CSc2nnc(-c3ccc(OC)c(OC)c3)o2)c1	> 8 µM (inactive)
COc1ccc(CCNC(=O)CSc2nnc(CNc3ccc(Cl)cc3)o2)cc1OC	> 8 µM (inactive)
CCOc1ccc(NS(=O)(=O)c2ccc(OCC(=O)N3CCCC3)cc2)cc1	> 8 µM (inactive)
COc1ccccc1-n1c(=O)c2c3c(sc2n2c(SC(C)C)nnc12)CCC3	> 8 µM (inactive)
O=C(NC1CCCc2ccccc21)c1ccc(CNc2c(N3CCOCC3)c(=O)c2=O)cc1 (stereo not given)	> 8 µM (inactive)
CCOC(=O)C1=C(C)NC(SC(C)=O)=NC1c1ccc(OC(C)=O)c(OC)c1 (stereo not given)	> 8 µM (inactive)
O=C(Nc1cnn(Cc2ccc(Cl)cc2Cl)c1)c1noc2c1CCCC2	> 8 µM (inactive)
Cn1c(=O)c2c(nc(NCc3ccc4c(c3)OCO4)n2Cc2ccccc2F)n(C)c1=O	> 8 µM (inactive)
Cc1ccccc1NC1=NCCCS1	> 8 µM (inactive)
CCOC(=O)C1CCN(c2nc3ccccc3nc2C(C#N)C(=O)OC(C)C)CC1 (stereo not given)	> 8 µM (inactive)
CCn1ncc(C2=NOC(C(=O)NCc3ccccc3)C2)c1C (stereo not given)	> 8 µM (inactive)
CCOC(=O)c1sc(NC(=O)c2c(C)nn(Cc3ccccc3)c2C)cc1C	> 8 µM (inactive)
CCn1cc(C(=O)NCCC2=CCCCC2)c(=O)c2cc(S(=O)(=O)N(C)C)ccc21	> 8 µM (inactive)
Cc1ccc(O)c(C(=O)c2cc(C#N)c(=O)n(CC3CCCO3)c2)c1 (stereo not given)	> 8 µM (inactive)
O=C(Nc1ccccc1)N(O)c1ccc(Cl)cc1	> 8 µM (inactive)
CC(C)(C)OC(=O)N1CC=C2C(C#N)=C(N)C(C#N)(C#N)[C@H](c3cccnc3)[C@H]2C1	> 8 µM (inactive)
O=C(O)CCn1[nH]c(=O)ccc1=O	> 8 µM (inactive)
Cn1c(=O)oc2cc(S(=O)(=O)NC3CCN(Cc4ccccc4)CC3)ccc21	> 8 µM (inactive)
CC1(C)Cc2ccccc2C(N)=C1C#N	> 8 µM (inactive)

SMILES	IC50
CCOC(=O)c1cc2c(=O)n3ccccc3nc2n(CCCOC)c1=NC(=O)C(C)(C)C	> 8 µM (inactive)
COc1ccc(CCNC(=O)C2=COCCO2)cc1	> 8 µM (inactive)
CS(=O)(=O)N(CC(=O)NCCSCc1cccc(Cl)c1)c1ccc2c(c1)OCO2	> 8 µM (inactive)
O=C(CCN1CCN(c2ccc(F)cc2)CC1)Nc1ccccc1F	> 8 µM (inactive)
O=C(Nc1ncnc2sc3c(c12)CCCCC3)c1ccco1	> 8 µM (inactive)
Cc1ccnc(NC(=O)C2CCCN(S(=O)(=O)c3cnc[nH]3)C2)c1 (stereo not given)	> 8 µM (inactive)
CN(C)[C@@H]1C(=O)C(C(N)=O)=C(O)[C@@]2(O)C(=O)C3=C(O)c4c(O)cccc4[C@@](C)(O)[C@H]3[C@H](O)[C@@H]12	< 0.1 µM
CN(C)[C@@H]1C(=O)C(C(N)=O)=C(O)[C@@]2(O)C(=O)C3=C(O)c4c(O)ccc(Cl)c4[C@@H](O)[C@H]3C[C@@H]12	< 0.01 µM
Cc1cc(N2CCN(C3CCCC3)CC2)n2c(nc3ccccc32)c1C#N	> 8 µM (inactive)
COc1ccc(NC(=O)CCc2nc(-c3ccccc3F)no2)cc1	> 8 µM (inactive)
O=C(C1COc2ccccc2O1)N1CCCC1 (stereo not given)	> 8 µM (inactive)
CCOC(=O)c1sc2ncn(/N=C/N(C)C)c(=O)c2c1C	> 8 µM (inactive)
CC(C)(C)NC(=O)CN(Cc1cccs1)C(=O)c1csnn1	> 8 µM (inactive)
Cc1nnc(SC(=O)N2c3ccccc3Sc3ccccc32)s1	> 8 µM (inactive)
O=c1oc2c3c4c(cc2cc1-c1nc2ccccc2[nH]1)CCCN4CCC3	> 8 µM (inactive)
Cc1cc(C)c(OCC(=O)Nc2cccc(O)c2)cc1C	> 8 µM (inactive)
O=C1Nc2ccccc2OC1CC(=O)N1CCCC1 (stereo not given)	> 8 µM (inactive)
Cc1ncoc1C(=O)Nc1cccc(Cl)c1C	> 8 µM (inactive)
CN(C)[C@@H]1C(=O)C(C(N)=O)=C(O)[C@@]2(O)C(=O)C3=C(O)c4c(O)ccc(Cl)c4[C@@](C)(O)C3C[C@@H]12 (stereo not given in full)	< 0.01 µM
C#CC1(O)CC(C)N(C)C(C)C1 (stereo not given)	> 8 µM (inactive)
Cc1ccccc1OCC(O)CN (stereo not given)	> 8 µM (inactive)
CN(C)C(=O)N1CCC(C(=O)NC2CCCCCCC2)CC1	> 8 µM (inactive)
